This is an account of results in patent US7407961B2, “Pyrazine derivatives and pharmaceutical use thereof” (Astellas Pharma Inc., priority 2003, dated 2008).

Structures are written as SMILES. Counter-ions that a name gives are not always drawn.

As usually defined, the melting point is the temperature, or range, at which the solid turns liquid.

Consider `CC(C)n1cc(-c2nc(C#N)c(N)nc2-c2ccccc2)ccc1=O` (as salt: Na) (hydrate or solvate) [Example 32, 3-Amino-6-(1-isopropyl-6-oxo-1,6-dihydro-3-pyridyl)-5-phenyl-2-pyrazinecarbonitrile], for which the melting point worked out at 205.4 °C. To `Cn1cc(-c2nc(C#N)c(N)nc2-c2ccccc2)ccc1=O` (as salt: Na) [Example 11, 3-amino-6-(1-methyl-6-oxo-1,6-dihydro-3-pyridyl)-5-phenyl-2-pyrazinecarbonitrile] belongs > 250 °C; to `NC(=O)c1nc(-c2ccc(=O)[nH]c2)c(-c2ccccc2)nc1N` (hydrate or solvate) [Example 2, 3-amino-6-(6-oxo-1,6-dihydro-3-pyridyl)-5-phenyl-2-pyrazinecarboxamide], 215 to 220 °C. Take `N#Cc1nc(-c2ccc(=O)[nH]c2)c(-c2ccccc2)nc1N` (hydrate or solvate) [Example 10, 3-amino-6-(6-oxo-1,6-dihydro-3-pyridyl)-5-phenyl-2-pyrazinecarbonitrile]: the melting point lay in the range of 243 to 248 °C. In turn, `COc1ccc(-c2nc(C(N)=O)c(N)nc2-c2ccccc2)cn1` (hydrate or solvate) [Example 15, 3-amino-6-(6-methoxy-3-pyridyl)-5-phenyl-2-pyrazinecarboxamide] showed a melting point of 208 to 212 °C. In the case of `CC(C)n1cc(-c2nc(C(N)=O)c(N)nc2-c2ccccc2)ccc1=O` (hydrate or solvate) [Example 16, 3-amino-6-(1-isopropyl-6-oxo-1,6-dihydro-3-pyridyl)-5-phenyl-2-pyrazinecarboxamide] it was 245 °C. In the case of `CC(C)n1cc(-c2nc(C(N)=O)c(N)nc2-c2ccccc2F)ccc1=O` (hydrate or solvate) [Example 17, 3-Amino-5-(2-fluorophenyl)-6-(1-isopropyl-6-oxo-1,6-dihydro-3-pyridyl)-2-pyrazinecarboxamide] it was 251.7 °C; in that of `CC(C)n1cc(-c2nc(C(N)=O)c(N)nc2-c2cccc(F)c2)ccc1=O` (hydrate or solvate) [Example 18, 3-Amino-5-(3-fluorophenyl)-6-(1-isopropyl-6-oxo-1,6-dihydro-3-pyridyl)-2-pyrazinecarboxamide], 258.8 °C. To `CC(C)n1cc(-c2nc(C(N)=O)c(N)nc2-c2ccc(F)cc2)ccc1=O` (hydrate or solvate) [Example 19, 3-Amino-5-(4-fluorophenyl)-6-(1-isopropyl-6-oxo-1,6-dihydro-3-pyridyl)-2-pyrazinecarboxamide] belongs 235.6 °C; to `CC(C)n1cc(-c2nc(C(N)=O)c(N)nc2-c2cccc(Cl)c2)ccc1=O` (hydrate or solvate) [Example 21, 3-Amino-5-(3-chlorophenyl)-6-(1-isopropyl-6-oxo-1,6-dihydro-3-pyridyl)-2-pyrazinecarboxamide], 232.6 °C; to `CC(C)n1cc(-c2nc(C(N)=O)c(N)nc2-c2ccc(Cl)cc2)ccc1=O` (hydrate or solvate) [Example 22, 3-Amino-5-(4-chlorophenyl)-6-(1-isopropyl-6-oxo-1,6-dihydro-3-pyridyl)-2-pyrazinecarboxamide], 246.2 °C. Turning to `COc1ccccc1-c1nc(N)c(C(N)=O)nc1-c1ccc(=O)n(C(C)C)c1` (hydrate or solvate) [Example 23, 3-Amino-6-(1-isopropyl-6-oxo-1,6-dihydro-3-pyridyl)-5-(2-methoxyphenyl)-2-pyrazinecarboxamide], the melting point amounted to 263.1 °C.

Consider `COc1cccc(-c2nc(N)c(C(N)=O)nc2-c2ccc(=O)n(C(C)C)c2)c1` (hydrate or solvate) [Example 24, 3-Amino-6-(1-isopropyl-6-oxo-1,6-dihydro-3-pyridyl)-5-(3-methoxyphenyl)-2-pyrazinecarboxamide], for which the melting point is 192.3 °C. On to `COc1ccc(-c2nc(N)c(C(N)=O)nc2-c2ccc(=O)n(C(C)C)c2)cc1` (hydrate or solvate) [Example 25, 3-Amino-6-(1-isopropyl-6-oxo-1,6-dihydro-3-pyridyl)-5-(4-methoxyphenyl)-2-pyrazinecarboxamide], for which the melting point came out at 243.9 °C. In the case of `CC(C)n1cc(-c2nc(C(N)=O)c(N)nc2-c2ccccc2OC(F)(F)F)ccc1=O` (hydrate or solvate) [Example 26, 3-Amino-6-(1-isopropyl-6-oxo-1,6-dihydro-3-pyridyl)-5-[2-(trifluoromethoxy)phenyl]-2-pyrazinecarboxamide] it was 206.5 °C; in that of `CC(C)n1cc(-c2nc(C(N)=O)c(N)nc2-c2cccc(OC(F)(F)F)c2)ccc1=O` (hydrate or solvate) [Example 27, 3-Amino-6-(1-isopropyl-6-oxo-1,6-dihydro-3-pyridyl)-5-[3-(trifluoromethoxy)phenyl]-2-pyrazinecarboxamide], 265.5 °C; in that of `CC(C)n1cc(-c2nc(C(N)=O)c(N)nc2-c2ccc(OC(F)(F)F)cc2)ccc1=O` (hydrate or solvate) [Example 28, 3-Amino-6-(1-isopropyl-6-oxo-1,6-dihydro-3-pyridyl)-5-[4-(trifluoromethoxy)phenyl]-2-pyrazinecarboxamide], 264 °C. In the case of `CC(C)n1cc(-c2nc(C(N)=O)c(N)nc2-c2ccc(F)c(F)c2)ccc1=O` (hydrate or solvate) [Example 29, 3-Amino-5-(3,4-difluorophenyl)-6-(1-isopropyl-6-oxo-1,6-dihydro-3-pyridyl)-2-pyrazinecarboxamide] it was 225.8 °C; in that of `CC(C)n1cc(-c2nc(C(N)=O)c(N)nc2-c2cc(F)cc(F)c2)ccc1=O` (hydrate or solvate) [Example 30, 3-Amino-5-(3,5-difluorophenyl)-6-(1-isopropyl-6-oxo-1,6-dihydro-3-pyridyl)-2-pyrazinecarboxamide], 248.8 °C; in that of `CC(C)n1cc(-c2nc(C(N)=O)c(N)nc2-c2ccc(C#N)cc2)ccc1=O` (hydrate or solvate) [Example 31, 3-Amino-5-(4-cyanophenyl)-6-(1-isopropyl-6-oxo-1,6-dihydro-3-pyridyl)-2-pyrazinecarboxamide], 292 °C.

The compound `CC(C)n1cc(-c2nc(C#N)c(N)nc2-c2ccccc2F)ccc1=O` (hydrate or solvate) [Example 33, 3-Amino-5-(2-fluorophenyl)-6-(1-isopropyl-6-oxo-1,6-dihydro-3-pyridyl)-2-pyrazinecarbonitrile] registered a melting point of 210.6 °C. To `CC(C)n1cc(-c2nc(C#N)c(N)nc2-c2cccc(F)c2)ccc1=O` (hydrate or solvate) [Example 34, 3-Amino-5-(3-fluorophenyl)-6-(1-isopropyl-6-oxo-1,6-dihydro-3-pyridyl)-2-pyrazinecarbonitrile] belongs 210.6 °C; to `CC(C)n1cc(-c2nc(C#N)c(N)nc2-c2ccc(F)cc2)ccc1=O` (hydrate or solvate) [Example 35, 3-Amino-5-(4-fluorophenyl)-6-(1-isopropyl-6-oxo-1,6-dihydro-3-pyridyl)-2-pyrazinecarbonitrile], 207 °C.
